Data on eleven compounds can be found in PubChem BioAssay (NCI).

“And” between values parts separate entries of the source, which are not always exact repeats. Identical values can stand only once.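 Exposure lasted 48 hours, with cells grown in 96-well plates and compounds tested at five concentrations. GI50 = concentration required for 50% inhibition of growth. TGI: concentration producing complete growth inhibition.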

Test systems include ACHN renal; OVCAR-5 ovarian; A549 NSCLC; UACC-257 melanoma; SNB-19 CNS; OVCAR-8 ovarian; CAKI-1 renal; HCC-2998 colon.
Experiment in all cases: growth of human tumour cells (NCI), 48 h

Turning to `COc1ccc2nc(NCN3C(=O)c4ccccc4C3=O)sc2c1`, the TGI with ACHN renal, in the experiment on OVCAR-5 ovarian, in the experiment with A549 NSCLC, in the experiment with UACC-257 melanoma, in the experiment on SNB-19 CNS and in the experiment on OVCAR-8 ovarian was more than 100 µM each time.
Consider `CC(C)(c1ccc(Oc2ccc(C#N)c(C#N)c2)cc1)c1ccc(Oc2ccc(C#N)c(C#N)c2)cc1`, for which the GI50 with ACHN renal, in the experiment on OVCAR-5 ovarian, in the experiment with A549 NSCLC, in the experiment on SNB-19 CNS, in the experiment with CAKI-1 renal and in the experiment on OVCAR-8 ovarian was more than 100 µM throughout. Further, in the experiment with HCC-2998 colon, the GI50 was more than 100 µM. For the same compound, the TGI in the experiment on ACHN renal, in the experiment with OVCAR-5 ovarian, in the experiment with A549 NSCLC, in the experiment with SNB-19 CNS, with CAKI-1 renal and in the experiment with OVCAR-8 ovarian was more than 100 µM throughout. Also, the TGI in the experiment with HCC-2998 colon is more than 100 µM.
`COc1ccc2c(c1)CCc1[nH]nc(-c3cc(OC)c(OC)c(OC)c3)c1-2`: the GI50 in the experiment with ACHN renal was less than 0.01 µM; in the experiment on OVCAR-5 ovarian, 0.242 µM; in the experiment with A549 NSCLC, less than 0.01 µM; in the experiment with SNB-19 CNS, less than 0.01 µM; in the experiment on CAKI-1 renal, less than 0.01 µM; in the experiment with OVCAR-8 ovarian, less than 0.01 µM. Also, the GI50 with HCC-2998 colon was less than 0.01 µM. The TGI worked out at 21.7 µM with ACHN renal; 38.8 µM in the experiment with OVCAR-5 ovarian; 19.5 µM with A549 NSCLC; 46.2 µM in the experiment on SNB-19 CNS; 24.8 µM with CAKI-1 renal; 15.4 µM with OVCAR-8 ovarian. The same compound registered a TGI in the experiment with HCC-2998 colon of 11.4 µM.
On to `COc1ccc(C2=Nc3c/c(=C\c4c(O)[nH]c5ccc(Cl)cc45)ccc3=N2)cc1`, for which the GI50 was 1.83 µM in the experiment with ACHN renal; 1.86 µM in the experiment with OVCAR-5 ovarian; 1.84 µM in the experiment on SNB-19 CNS; 2.05 µM in the experiment with OVCAR-8 ovarian; 1.24 µM in the experiment on HCC-2998 colon. Moreover, the TGI is 3.47 µM in the experiment with ACHN renal; 4 µM with OVCAR-5 ovarian; 5.85 µM in the experiment with SNB-19 CNS; 4.7 µM with OVCAR-8 ovarian; 2.51 µM with HCC-2998 colon.
Consider `O=C1C(Cl)=C(Nc2cccc(O)c2)C(=O)N1Cc1ccc(Cl)cc1`, for which the GI50 was 15.6 µM in the experiment on OVCAR-5 ovarian; 5.22 µM in the experiment with A549 NSCLC; 8.18 µM with UACC-257 melanoma; 2.64 µM in the experiment on SNB-19 CNS; 1.74 µM in the experiment on CAKI-1 renal; 3.65 µM in the experiment with OVCAR-8 ovarian. Besides, the TGI in the experiment on OVCAR-5 ovarian turned out to be 31.6 µM; with A549 NSCLC, 37.4 µM; in the experiment with UACC-257 melanoma, 25 µM; in the experiment with SNB-19 CNS, 23.5 µM; in the experiment with CAKI-1 renal, 10.1 µM; in the experiment with OVCAR-8 ovarian it was 44.4 µM.
As for `O=C(O)c1ccc([S-])cc1.[Au+].c1ccc(CN2[CH-]N(Cc3ccccc3)C(c3ccccc3)=C2c2ccccc2)cc1`, the GI50 in the experiment on ACHN renal is 0.332 µM; in the experiment on OVCAR-5 ovarian, 0.918 µM; in the experiment on A549 NSCLC, 0.358 µM; with UACC-257 melanoma it was 0.283 µM; with OVCAR-8 ovarian, 0.417 µM; with HCC-2998 colon, 0.536 µM. Besides, the TGI was 1.28 µM in the experiment with ACHN renal; 2.2 µM in the experiment with OVCAR-5 ovarian; 1.63 µM in the experiment with A549 NSCLC; 1.2 µM in the experiment on UACC-257 melanoma; 1.66 µM in the experiment with OVCAR-8 ovarian; 1.88 µM with HCC-2998 colon.
Turning to `CN1CCN(C(=O)c2c(NC(=O)NS(=O)(=O)c3ccccc3)sc3c2CCCCC3)CC1`, the GI50 in the experiment on ACHN renal is 30.7 µM; in the experiment with OVCAR-5 ovarian it was 76.3 µM; in the experiment with A549 NSCLC it was 65.7 µM; in the experiment on UACC-257 melanoma, 35.6 µM; with CAKI-1 renal, 20.3 µM; in the experiment on OVCAR-8 ovarian it was 53.5 µM. Moreover, the GI50 in the experiment on HCC-2998 colon was 21.9 µM. Further, the TGI in the experiment on ACHN renal was more than 100 µM; in the experiment with OVCAR-5 ovarian, more than 100 µM; with A549 NSCLC, more than 100 µM; in the experiment on UACC-257 melanoma, more than 100 µM; in the experiment on CAKI-1 renal, 54.4 µM; with OVCAR-8 ovarian, more than 100 µM. Besides, the TGI with HCC-2998 colon was 44.2 µM.
With `c1ccc(Nn2c(CCCCCCCCc3nnc(COc4ccccc4)n3Nc3ccccc3)nnc2COc2ccccc2)cc1`, the GI50 was 2.89 µM and 5.83 µM in the experiment on ACHN renal; 8.56 µM and 10.2 µM in the experiment on OVCAR-5 ovarian; 107 µM in the experiment on SNB-19 CNS; 5.11 µM and 2.73 µM with CAKI-1 renal; 40 µM and 23.9 µM in the experiment with OVCAR-8 ovarian; 16.2 µM and 15.7 µM with HCC-2998 colon. In addition, the TGI is more than 300 µM in the experiment on ACHN renal; more than 300 µM in the experiment on OVCAR-5 ovarian; more than 86.5 µM in the experiment with UACC-257 melanoma; more than 300 µM with SNB-19 CNS; 59.1 µM and 34.8 µM with CAKI-1 renal; more than 300 µM in the experiment with OVCAR-8 ovarian. The TGI in the experiment with HCC-2998 colon is > 72.6 µM and 186 µM.
In the case of `COc1cc(-c2csc(NC(=O)Nc3cc(C(F)(F)F)cc(C(F)(F)F)c3)n2)cc(OC)c1OC`, the GI50 was 2.78 µM in the experiment on ACHN renal; 3.29 µM in the experiment on OVCAR-5 ovarian; 2.62 µM with A549 NSCLC; 3.56 µM in the experiment with SNB-19 CNS; 2.88 µM in the experiment on CAKI-1 renal; 2.73 µM in the experiment with OVCAR-8 ovarian. In the experiment on HCC-2998 colon, the GI50 was 3.81 µM. In addition, the TGI turned out to be 10.6 µM in the experiment on ACHN renal; 14 µM in the experiment on OVCAR-5 ovarian; 12.4 µM with A549 NSCLC; 15.7 µM with SNB-19 CNS; 12.1 µM with CAKI-1 renal; 13 µM in the experiment with OVCAR-8 ovarian. This compound also displayed a TGI with HCC-2998 colon of 14.4 µM.
On to `COc1ccc(SC2c3ccc(C)cc3Oc3nc(N)c(C#N)c(N)c32)cc1` (stereo unspecified), for which the GI50 was 1.76 µM in the experiment with ACHN renal; 1.74 µM in the experiment with OVCAR-5 ovarian; 2.19 µM in the experiment with A549 NSCLC; 1.99 µM in the experiment on UACC-257 melanoma; 1.64 µM in the experiment on OVCAR-8 ovarian; 1.73 µM in the experiment with HCC-2998 colon. For the same compound, the TGI in the experiment with ACHN renal came out at 3.15 µM; with OVCAR-5 ovarian it was 3.35 µM; in the experiment on A549 NSCLC, 4.21 µM; in the experiment with UACC-257 melanoma it was 3.49 µM; with OVCAR-8 ovarian, 3.06 µM; in the experiment with HCC-2998 colon, 3.19 µM.
Regarding `COC(=O)c1ccc(NC(=O)c2cc(OC)c(OC)c(OC)c2)cc1`, the TGI was more than 100 µM in the experiment with ACHN renal; more than 100 µM in the experiment with A549 NSCLC; more than 100 µM with SNB-19 CNS; more than 100 µM in the experiment with OVCAR-8 ovarian; 6.67 µM in the experiment with HCC-2998 colon.
